Source: patent US7417026B2, “Mobilization of hematopoietic cells” (Children's Hospital Medical Center, priority 2003, dated 2008)

Columns and labels:
RhoA-F30L [1] = target: T1, RhoA-F30L (Homo sapiens, UniProt P61586, F30L); assay: Downregulation of RhoA-F30L biochemical activity by retrovirally expressed RhoGAP chimera; assay type: cell-based; settings: for biochemical activity of F30LRhoA: high copy number retroviral vector SF91-EMCV-IRES-GFP
T1 construct: expressed in transfected cells
Excerpt: (§1) Like other cases of retrovirus-based gene transfer approach, the copy number of the introduced RhoGAP-Rho chimeras in the host cells will likely to be important for the efficacy of their application.

RhoA-F30L [2] = target: T1, RhoA-F30L; assay: RhoA-F30L-induced transformation; assay type: cell-based; settings: for RhoA-F30L-induced transformation: high copy number retroviral vector SF91-EMCV-IRES-GFP
Excerpt: as §1

WT neutrophils [3] = settings: 10 μM
Experimental: Neutrophil chemotaxis in response to 10 μM formyl-methionyl-leucyl-phenylalanine (fMLP) was examined in Boyden chamber assays.

p42/p44 = settings: neutrophils, 10 μM
Excerpt: (§2) It was next determined whether, in a manner similar to HSC/P, p42/p44 MAPKs were regulated via Rac proteins in neutrophils.

WT neutrophils [4] = settings: 10 μM; remark: listed apart in the source
Excerpt: as §2

ERK = settings: HSC/P cells, 30 μM
WT neutrophils [5] = settings: 10 μM; remark: listed apart in the source
Excerpt: as §2

WT HSC/P cells [6] = assay: Apoptosis of HSC/P following SCF stimulation (Annexin-V); assay type: cell-based, mice; settings: concentration not given
Excerpt: By contrast, Rac2 appears to play no role in proliferation but regulated cell survival through the known anti-apoptotic protein Akt (Kennedy, et al. Genes Dev. 11, 701-13, 1997). Rac2 but not Rac1 deficiency was associated with increased frequency of both early (Annexin-V+) and late (Annexin V+/7AAD+) apoptotic cells (FIG. 2F) and expression of the Rac2 cDNA in Rac2−/− HSC/P led to a complete reversal of the apoptotic phenotype [4.4+0.8 vs. 6.6+1.3, vs. 3.1+0.7; % Annexin-V+ cells, WT vs. Rac2−/− vs. Rac−/− (Rac2+); p<0.01 Rac2−/− vs. Rac2−/− (Rac2+)]. Loss of both Rac1 and Rac2 activities was associated with a more severe apoptotic phenotype compared with deficiency of only Rac2 GTPase activity (FIG. 2D). […] The reduced Akt activation was close to normal in Rac1−/− cells.

WT HSC/P cells [7] = assay: Cell cycle analysis of HSC/P after SCF stimulation (cells in S+G2/M); assay type: cell-based, mice; settings: 30 μM
Experimental: To further analyze the mechanism, by which Rac1 affects proliferation in primitive HSC/P cells, cell cycle analysis was performed after stimulation with 100 ng/ml SCF. […] In contrast, the number of Rac2−/− cells in S+G2/M phases was similar to WT cells. The delay in entry into S phase was significant by 24 hours after SCF addition and persisted at 48 hours. This defect in cell cycle progression appeared directly related to Rac1 deficiency, since expression of Rac1 protein using retrovirus-mediated gene transfer restored cycle progression in Rac1−/− cells [33+4 vs. 19+3 vs. 34+3; % cells in S+G2/M, WT vs. Rac1−/− vs. Rac1−/− (Rac1+), p<0.01 Rac1−/− vs. Rac1−/− (Rac1+)].

HSC/progenitor cells [8] = assay: Mobilization of progenitor cells into peripheral blood, normal mice; assay type: in vivo; settings: intraperitoneal injection, three doses
Experimental: In FIG. 4, NSC23776, an inhibitor of GEF interaction with Rac proteins, or PBS as a control was administered by intraperitoneal injection to normal mice. At the indicated time points after injection, mice were bled and analyzed for the number of progenitor cells in the peripheral blood. Three doses of drug were administered. Each point represents samples from 6 mice, mean +/− SEM.

HSC/progenitor cells [9] = assay: Mobilization of progenitor cells into peripheral blood, Rac2-/- mice; assay type: in vivo; settings: intraperitoneal injection, three doses
Experimental: In FIG. 5, NSC23776 or PBS as a control was administered by intraperitoneal injection to normal mice and mice with a genetic deficiency of Rac2 (Rac2−/− mice). At the indicated time points after injection, mice were bled and analyzed for the number of progenitor cells in the peripheral blood. Three doses of drug were administered. Each point represents samples from 6 mice, mean +/− SEM. For information on how to make and use NSC23776 and other small molecule inhibitors, see copending U.S. Provisional application 60/523,599, filed Nov. 20, 2003.

T1 sequence (P61586 whole entry F30L): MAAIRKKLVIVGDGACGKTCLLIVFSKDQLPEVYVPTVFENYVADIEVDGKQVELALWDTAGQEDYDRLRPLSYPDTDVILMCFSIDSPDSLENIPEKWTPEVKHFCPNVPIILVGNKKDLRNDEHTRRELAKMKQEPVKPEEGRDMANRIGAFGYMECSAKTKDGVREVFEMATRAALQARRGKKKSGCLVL

p190: GAP-containing protein fraction of human p190, the predominant GAP for RhoA, expressed alone
biochemical activity of F30LRhoA (RhoA-F30L [1]): did not affect
RhoA-F30L-induced transformation (RhoA-F30L [2]): did not affect

N#CC(=C(/N)Sc1ccccc1N)/C(C#N)=C(\N)Sc1ccccc1N [U0126]
cell migration (WT neutrophils [3]): significant decrease
phosphorylation of p42/p44 (p42/p44): abrogates
cortical actin formation (WT neutrophils [4]): impaired cortical actin formation
ERK activation (ERK): inhibited
percentage of NBT+ cells (WT neutrophils [5]): no change
increase in apoptosis (WT HSC/P cells [6]): An increase in apoptosis was not seen
number of cells in S+G2/M (WT HSC/P cells [7]): significant reduction

CCN(CC)CCCC(C)Nc1nc(C)cc(Nc2ccc3nc(C)cc(N)c3c2)n1 (stereo not drawn) [NSC23776]
mobilization of HSC/progenitor cells (HSC/progenitor cells [8]): does indeed lead to mobilization
mobilization of HSC/progenitor cells (HSC/progenitor cells [9]): additive effect

B1: p190-RhoA-C: p190GAP fused with the RhoA C-terminal sequence, expressed from a retroviral vector (protein)
chain: VPLTTVVTPEKPIPIFIERCIEYIEATGLSTEGIYRVSGNKSEMESLQRQFDQDHNLDLAEKDFTVNTVAGAMKSFFSELPDPLVPYSMQIDLVEAHKINDREQKLHALKEVLKKFPKENHEVFKYVISHLNRVSHNNKVNLMTSENLSICFWPTLMRPDFSSMDALTATRSYQTIIELFIQQCPFFFYNRPISEPPGAALAPLQPWHPLSPSSPLHLLPVSHHLPSHLLQPLSPQCSHCSPLSSKPNTRCEPPQPRKQENQLSSLQARRGKKKSGCLVL
modifications: chimeric fusion peptide/p190RhoGAP plus c-terminus tail section of the targeted GTPase
biochemical activity of RhoA-F30L (RhoA-F30L [1]; expression with MIEG3): insufficient
biochemical activity of F30LRhoA (RhoA-F30L [1]): specifically decrease
transforming activity of RhoA-F30L (RhoA-F30L [2]; expression with MIEG3): insufficient
RhoA-F30L-induced transformation (RhoA-F30L [2]): specifically decrease
